Experimental data taken from article PMC8624189, “Phenolic Profiles and Biological Activities of Extracts from Edible Wild Fruits Ehretia tinifolia and Sideroxylon lanuginosum” (Foods, 2021).
Values after ≈ are worked out from the molar mass of the structure shown. Blank lines part the entries; values can stand above or below the compound they belong to.

Key:
[1] = tested on: erythrocytes; conditions: cited from earlier work
[2] = tested on: HeLa cells; test: Antiproliferative activity, Alamar Blue, HeLa; format: cell-based; conditions: Homo sapiens, 24 h exposure, read-out: Half Maximal Inhibitory Concentration HeLa
Method: (§1) The antiproliferative effects of extracts of E. tinifolia and S. lanuginosum were assessed using the method described previously by Viveros-Valdez, et al.. HeLa (ATCC® CCL-2), MCF-7 (ATCC® HTB-22) and HT-29 (ATCC® HTB-38) cancer cell lines were used. The cells were seeded in 25 cm^2 tissue culture flasks in Dulbecco’s modified eagle medium (DMEM) mixed with Ham’s nutrients (Ham’s F-12) and supplemented with 10% fetal bovine serum (FBS), adjusting the pH to 7.2. A mixture of antibiotics composed of penicillin and streptomycin (10,000 IU/mL: 10,000 µg/mL; 1 mL of mixture/1 L of medium) was added. Cells were maintained at 37 °C in an incubator under a 5% CO2/95% air atmosphere at constant humidity. Cells were harvested by trypsinization, counted with a hemocytometer, and their viability was confirmed by Trypan Blue (0.4%). The different cancer cell lines were seeded with 5000 cells per well in a 96 well plate.

[3] = tested on: HT-29 cells; test: Antiproliferative activity, Alamar Blue, HT-29; format: cell-based; conditions: Homo sapiens, 24 h exposure, read-out: Half Maximal Inhibitory Concentration HT-29
Method: as §1

[4] = tested on: MCF-7 cells; conditions: read-out: EC50 in inhibiting MCF-7 cell growth; cited from earlier work
[5] = tested on: human erythrocytes; test: Protective effect on human erythrocytes (AAPH-induced hemolysis); format: cell-based; conditions: Erythrocyte, 37 °C, 3 h, read-out: Hemolytic Inhibition IC50
Method: Hemolysis was induced by peroxyl radicals generated by AAPH (2-2'-Azobis (2-amidinopropane dihydrochloride) according to the methodology of Silva-Beltrán et al.. Then, 5 mL of blood was obtained from healthy human volunteers by venipuncture and collected into tubes containing EDTA as an anticoagulant. Erythrocytes were separated from plasma by centrifugation at 1500 rpm for 10 min at room temperature and washed three times with five volumes of phosphate-buffered saline (PBS) (37 mM of NaCl, 2.7 mM of KCI, 8 mM of Na2HPO4, and 2 mM of KH2PO4 w/v) at pH 7.4. Later, erythrocytes were suspended in four volumes of PBS solution to obtain a density of 8 × 10^9 cells/mL. The addition of AAPH to the suspension of washed erythrocytes induces oxidation of membrane lipids and proteins, resulting in hemolysis. The erythrocyte suspension (250 μL) was mixed with 250 μL of fruit extracts dissolved in PBS at concentrations of 500, 750, 1000, 2000 μg/mL and 250 μL of 300 mM AAPH in PBS. The reaction mixture was shaken gently while being incubated at 37 °C for 3 h. […] The supernatant's absorbance was measured in a microplate reader (Agilent BioTek Epoch, Santa Clara, CA, United States) at 540 nm. Percent inhibition was calculated by the following equation:% Inhibition = [[…] × 100] where AAAPH is the absorbance of AAPH at 540 nm and As is the absorbance of the extracts at 540 nm. […]

SMILES: Oc1cc(O)c2c(c1)O[C@H](c1ccc(O)c(O)c1)[C@H](O)C2 [epicatechin]
hemolysis inhibition IC50 [1]: 42.3 mg/L

IC50 [2]: 11 ± 2 mg/L (≈ 12.9 µM) | IC50 [3]: 15 ± 1 mg/L (≈ 17.6 µM)
SMILES: CC(=O)O[C@H]1C(=O)[C@@]2(C)[C@H]([C@H](OC(=O)c3ccccc3)[C@]3(O)C[C@H](OC(=O)[C@H](O)[C@@H](NC(=O)c4ccccc4)c4ccccc4)C(C)=C1C3(C)C)[C@]1(OC(C)=O)CO[C@@H]1C[C@@H]2O [taxol, Taxol]

SMILES: O=c1c(O[C@@H]2O[C@H](CO)[C@@H](O)[C@H](O)[C@H]2O)c(-c2ccc(O)c(O)c2)oc2cc(O)cc(O)c12 [QG, quercetin glucoside]
EC50 [4]: 46.4 µM

SMILES: O=C1O[C@H]([C@@H](O)CO)C(O)=C1O [ascorbic acid]
IC50 [5]: 289 ± 20 mg/L (≈ 1640 µM)
